Patent publication US12590075B2, “Refining method” (NGK Insulators, Ltd., priority 2020, dated 2026)

Assay: Dissolution time / dissolution rate of the raw material in a solvent (stereoscopic microscope, heating stage)
Assay type: physicochemical
Conditions: heating stage 50±5° C., order of solvents; for Dissolution rate of the raw material (Arranged in order from the fastest to the slowest): 25 mg compound in 2 mL solvent
Procedure: The dissolution time of the raw material of febuxostat in a solvent was examined as described below. […] First, a heating stage ([…], Mettler) was installed in a stereoscopic microscope (SZX16, Olympus Corporation), and the surface temperature of the heating stage was maintained at 50±5° C. 25 mg of febuxostat (product code […], Tokyo Chemical Industry Co., Ltd.) was weighed into a flat laboratory dish (φ32 mm×16 mm), and 2 mL of the solvent was weighed and added to the laboratory dish, which was then immediately covered with a glass lid. The laboratory dish was placed on the heating stage. […] As a result, the dissolution time was ethanol<2-propanol<acetonitrile (in other words, the dissolution rate was ethanol>2-propanol>acetonitrile). […] The dissolution times of the raw materials of loxoprofen and diclofenac in the solvents were also examined in the same manner as febuxostat.

SMILES	Dissolution rate of the raw material (Arranged in order from the fastest to the slowest)	Dissolution rate of the raw material (Arranged in order from the fastest to the slowest) (listed as febuxostat)	dissolution time (25 mg in 2 mL solvent, time until no undissolved material observed)
CC(C(=O)O)c1ccc(CC2CCCC2=O)cc1 (centres unmarked) [Loxoprofen, loxoprofen]	Ethanol, 2-propanol	–	–
O=C(O)Cc1ccccc1Nc1c(Cl)cccc1Cl [Diclofenac, diclofenac]	Ethanol, Ethanol/IPA^※1	–	–
Cc1nc(-c2ccc(OCC(C)C)c(C#N)c2)sc1C(=O)O [Febuxostat, febuxostat]	Ethanol, 2-propanol, Acetonitrile	ethanol>2-propanol>acetonitrile	ethanol<2-propanol<acetonitrile
